Data from article PMC5003625 (Journal of medicinal chemistry, 2016).

Tests used:
EZH2 = conditions: cited from earlier work; for selectivity for EZH2 over EZH1: reported inhibitors
[1] = molecular target: EZH2 trimeric complex (EZH2:EED:SUZ12) (Homo sapiens, UniProt Q15910); assay: Methyltransferase activity assay; assay type: biochemical
[2] = molecular target: EZH1 pentameric complex (EZH1:EED:SUZ12:RBBP4:AEBP2) (Homo sapiens, UniProt Q92800); assay: Methyltransferase activity assay; assay type: biochemical
Sequence of EZH1 pentameric complex (EZH1:EED:SUZ12:RBBP4:AEBP2) (Q92800 whole entry): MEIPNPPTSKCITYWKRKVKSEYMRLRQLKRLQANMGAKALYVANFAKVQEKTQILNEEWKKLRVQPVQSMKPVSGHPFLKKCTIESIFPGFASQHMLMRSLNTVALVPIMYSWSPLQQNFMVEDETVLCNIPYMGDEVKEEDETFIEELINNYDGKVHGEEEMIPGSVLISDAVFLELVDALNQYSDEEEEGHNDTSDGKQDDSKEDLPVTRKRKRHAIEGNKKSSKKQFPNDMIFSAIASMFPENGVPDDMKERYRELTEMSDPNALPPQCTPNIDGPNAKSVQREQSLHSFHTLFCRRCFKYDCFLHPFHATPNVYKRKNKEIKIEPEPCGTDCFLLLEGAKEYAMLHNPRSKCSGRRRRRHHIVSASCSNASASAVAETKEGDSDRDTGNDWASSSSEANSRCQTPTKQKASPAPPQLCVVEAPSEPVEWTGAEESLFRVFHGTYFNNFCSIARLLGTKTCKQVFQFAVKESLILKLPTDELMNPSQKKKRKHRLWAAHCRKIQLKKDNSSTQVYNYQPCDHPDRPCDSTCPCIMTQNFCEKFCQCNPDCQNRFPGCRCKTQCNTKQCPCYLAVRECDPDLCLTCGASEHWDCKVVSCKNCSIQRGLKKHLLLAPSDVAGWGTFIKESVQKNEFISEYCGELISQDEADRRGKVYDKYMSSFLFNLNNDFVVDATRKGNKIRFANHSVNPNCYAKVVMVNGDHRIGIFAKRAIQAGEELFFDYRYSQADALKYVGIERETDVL
Sequence of EZH1 pentameric complex (EZH1:EED:SUZ12:RBBP4:AEBP2) (O75530 whole entry partner): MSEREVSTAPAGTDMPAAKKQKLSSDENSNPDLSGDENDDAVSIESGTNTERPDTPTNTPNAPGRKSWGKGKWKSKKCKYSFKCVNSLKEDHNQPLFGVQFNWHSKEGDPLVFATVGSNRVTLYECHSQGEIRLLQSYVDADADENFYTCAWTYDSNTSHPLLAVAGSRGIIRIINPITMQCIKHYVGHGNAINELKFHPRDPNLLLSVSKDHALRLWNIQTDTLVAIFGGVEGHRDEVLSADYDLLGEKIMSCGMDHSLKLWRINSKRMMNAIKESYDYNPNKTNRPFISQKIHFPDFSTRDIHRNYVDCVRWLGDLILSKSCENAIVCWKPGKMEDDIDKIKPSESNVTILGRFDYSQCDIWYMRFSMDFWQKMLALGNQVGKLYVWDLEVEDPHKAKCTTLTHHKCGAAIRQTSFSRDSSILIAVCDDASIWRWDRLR
Sequence of EZH1 pentameric complex (EZH1:EED:SUZ12:RBBP4:AEBP2) (Q15022 whole entry partner): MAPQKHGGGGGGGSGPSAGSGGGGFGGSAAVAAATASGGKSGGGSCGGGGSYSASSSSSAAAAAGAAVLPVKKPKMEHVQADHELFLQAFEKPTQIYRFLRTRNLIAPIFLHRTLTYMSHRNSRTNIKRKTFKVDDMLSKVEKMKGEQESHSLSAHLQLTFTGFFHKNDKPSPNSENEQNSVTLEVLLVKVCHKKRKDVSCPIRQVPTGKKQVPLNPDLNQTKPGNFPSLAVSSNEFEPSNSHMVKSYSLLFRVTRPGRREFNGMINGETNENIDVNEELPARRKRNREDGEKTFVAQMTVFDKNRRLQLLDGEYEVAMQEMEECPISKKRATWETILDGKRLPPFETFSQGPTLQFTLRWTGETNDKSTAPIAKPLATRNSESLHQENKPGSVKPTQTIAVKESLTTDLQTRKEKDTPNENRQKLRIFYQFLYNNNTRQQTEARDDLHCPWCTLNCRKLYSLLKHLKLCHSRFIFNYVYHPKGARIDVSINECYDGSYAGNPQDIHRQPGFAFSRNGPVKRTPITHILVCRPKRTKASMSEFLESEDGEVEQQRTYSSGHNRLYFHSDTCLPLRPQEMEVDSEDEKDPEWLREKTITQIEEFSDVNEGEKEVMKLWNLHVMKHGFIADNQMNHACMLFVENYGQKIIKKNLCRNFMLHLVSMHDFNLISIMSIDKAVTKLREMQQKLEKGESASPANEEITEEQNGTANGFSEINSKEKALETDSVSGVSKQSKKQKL
Sequence of EZH1 pentameric complex (EZH1:EED:SUZ12:RBBP4:AEBP2) (Q09028 whole entry partner): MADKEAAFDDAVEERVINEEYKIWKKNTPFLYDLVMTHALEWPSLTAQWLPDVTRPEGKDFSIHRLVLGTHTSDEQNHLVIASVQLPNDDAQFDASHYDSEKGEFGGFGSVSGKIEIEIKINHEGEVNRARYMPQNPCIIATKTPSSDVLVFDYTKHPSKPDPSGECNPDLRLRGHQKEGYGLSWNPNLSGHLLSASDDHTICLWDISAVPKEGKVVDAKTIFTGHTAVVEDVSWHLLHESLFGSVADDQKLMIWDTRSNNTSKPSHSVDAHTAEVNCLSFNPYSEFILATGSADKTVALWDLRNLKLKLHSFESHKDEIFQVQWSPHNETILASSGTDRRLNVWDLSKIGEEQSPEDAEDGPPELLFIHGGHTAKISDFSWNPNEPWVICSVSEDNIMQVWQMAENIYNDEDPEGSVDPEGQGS
Sequence of EZH1 pentameric complex (EZH1:EED:SUZ12:RBBP4:AEBP2) (Q6ZN18 whole entry partner): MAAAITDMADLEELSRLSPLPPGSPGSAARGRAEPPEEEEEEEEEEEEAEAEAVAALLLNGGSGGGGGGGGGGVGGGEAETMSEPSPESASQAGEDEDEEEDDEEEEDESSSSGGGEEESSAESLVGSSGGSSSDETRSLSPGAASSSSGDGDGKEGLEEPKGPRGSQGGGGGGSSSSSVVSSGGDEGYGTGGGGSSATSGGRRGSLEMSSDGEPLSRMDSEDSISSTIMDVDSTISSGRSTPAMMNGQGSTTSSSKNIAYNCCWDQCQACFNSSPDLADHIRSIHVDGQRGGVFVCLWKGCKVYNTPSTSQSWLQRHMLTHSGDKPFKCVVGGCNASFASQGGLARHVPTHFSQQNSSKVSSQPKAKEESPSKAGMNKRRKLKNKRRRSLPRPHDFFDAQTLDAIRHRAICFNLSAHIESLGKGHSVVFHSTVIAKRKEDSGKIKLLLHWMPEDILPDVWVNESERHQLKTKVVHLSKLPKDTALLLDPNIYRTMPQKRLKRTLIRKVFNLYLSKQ

Sequence of EZH2 trimeric complex (EZH2:EED:SUZ12) (Q15910 whole entry): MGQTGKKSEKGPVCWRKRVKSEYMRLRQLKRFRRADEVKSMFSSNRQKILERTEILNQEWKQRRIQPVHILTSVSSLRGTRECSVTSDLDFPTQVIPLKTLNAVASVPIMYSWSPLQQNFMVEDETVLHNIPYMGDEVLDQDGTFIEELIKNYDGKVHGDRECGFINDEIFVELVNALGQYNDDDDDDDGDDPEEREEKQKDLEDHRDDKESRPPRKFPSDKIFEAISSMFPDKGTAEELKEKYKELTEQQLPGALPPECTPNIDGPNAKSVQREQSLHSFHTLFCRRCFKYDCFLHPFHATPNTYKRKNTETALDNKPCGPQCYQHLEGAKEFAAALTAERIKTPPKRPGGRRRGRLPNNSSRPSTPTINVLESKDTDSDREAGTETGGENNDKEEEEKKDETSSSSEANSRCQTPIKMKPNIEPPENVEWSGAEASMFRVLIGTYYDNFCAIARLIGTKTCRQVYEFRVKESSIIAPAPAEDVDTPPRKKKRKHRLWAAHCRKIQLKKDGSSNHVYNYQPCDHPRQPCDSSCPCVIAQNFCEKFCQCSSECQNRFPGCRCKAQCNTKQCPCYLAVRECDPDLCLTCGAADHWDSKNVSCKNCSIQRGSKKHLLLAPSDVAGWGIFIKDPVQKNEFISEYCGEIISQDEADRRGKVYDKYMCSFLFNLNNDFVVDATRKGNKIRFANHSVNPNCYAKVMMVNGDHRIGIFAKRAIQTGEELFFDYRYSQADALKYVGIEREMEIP
Sequence of EZH2 trimeric complex (EZH2:EED:SUZ12) (O75530 whole entry partner): as the sequence (O75530 whole entry partner) above
Sequence of EZH2 trimeric complex (EZH2:EED:SUZ12) (Q15022 whole entry partner): as the sequence (Q15022 whole entry partner) above

COc1cc(C)[nH]c(=O)c1CNC(=O)c1c(C)n([C@H](C)C2CCOCC2)c2ccccc12 [Compound 8, CPI-360]
selectivity for EZH2 over EZH1 (EZH2): 100 fold

Cc1cc(C)c(CNC(=O)c2cc(-c3ccc(CN4CCOCC4)cc3)cc3c2cnn3C2CCCC2)c(=O)[nH]1 [Compound 1, EPZ005687]
selectivity for EZH2 over EZH1 (EZH2): 50 fold

CCCc1cc(C)[nH]c(=O)c1CNC(=O)c1cc(-c2ccnc(N3CCN(C)CC3)c2)cc2c1cnn2C(C)C [Compound 3, GSK343]
selectivity for EZH2 over EZH1 (EZH2): 60 fold

CCC(CC)n1ccc2c(C(=O)NCc3c(C)cc(C)[nH]c3=O)cc(C#N)cc21 [Compound 4, EI1]
selectivity for EZH2 over EZH1 (EZH2): 140 fold

CCCc1cc(C)[nH]c(=O)c1CNC(=O)c1cn2ccc(-c3ccc(N4CCN(C(C)C)CC4)nc3)cc2n1 [Compound 50, 7-(6-(4-Isopropylpiperazin-1-yl)pyridin-3-yl)-N-((6-methyl-2-oxo-4-propyl-1,2-dihydropyridin-3-yl)methyl)imidazo[1,2-a]pyridine-2-carboxamide]
inhibitory activity against EZH2, in words [1]: inactive | inhibitory activity against EZH1, in words [2]: inactive

CCCc1cc(C)[nH]c(=O)c1CNC(=O)c1cc(-c2ccc(N3CCNCC3)nc2)cc2c1cnn2C(C)C [Compound 65]
inhibitory activity against EZH2, in words [1]: did not affect the potency | inhibitory activity against EZH1, in words [2]: did not affect the potency

Cc1ncc(CNC(=O)c2cc(-c3ccc(N4CCN(C(C)C)CC4)nc3)cc3c2cnn3C(C)C)c(=O)[nH]1 [Compound 40, 1-Isopropyl-6-(6-(4-isopropylpiperazin-1-yl)pyridin-3-yl)-N-((2-methyl-6-oxo-1,6-dihydropyrimidin-5-yl)methyl)-1H-indazole-4-carboxamide]
inhibitory activity against EZH2, in words [1]: completely abrogated inhibitory activity | inhibitory activity against EZH1, in words [2]: completely abrogated inhibitory activity

CC[C@H](C)n1cc(C)c2c(C(=O)NCc3c(C)cc(C)[nH]c3=O)cc(-c3ccc(N4CCNCC4)nc3)cc21 [Compound 2, GSK126]
selectivity for EZH2 over EZH1 (EZH2): 150 fold

CC(C)N1CCN(c2ccc(-c3cc(C(=O)NCc4cnc[nH]c4=O)c4cnn(C(C)C)c4c3)cn2)CC1 [Compound 41, 1-Isopropyl-6-(6-(4-isopropylpiperazin-1-yl)pyridin-3-yl)-N-((6-oxo-1,6-dihydropyrimidin-5-yl)methyl)-1H-indazole-4-carboxamide]
inhibitory activity against EZH2, in words [1]: completely abrogated inhibitory activity | inhibitory activity against EZH1, in words [2]: completely abrogated inhibitory activity

Cc1cc(C(C)(C)C)[nH]c(=O)c1CNC(=O)c1cc(-c2ccc(N3CCN(C(C)C)CC3)nc2)cc2c1cnn2C(C)C [Compound 32, N-((6-(tert-Butyl)-4-methyl-2-oxo-1,2-dihydropyridin-3-yl)-methyl)-1-isopropyl-6-(6-(4-isopropylpiperazin-1-yl)pyridin-3-yl)-1H-indazole-4-carboxamide]
inhibitory activity against EZH2, in words [1]: complete loss of potency | inhibitory activity against EZH1, in words [2]: complete loss of potency

CCN(c1cc(-c2ccc(N3CCN(C)CC3)nc2)cc(C(=O)NCc2c3c(c(C)[nH]c2=O)CCCC3)c1C)C1CCOCC1 [Compound 10, ZLD1039]
selectivity for EZH2 over EZH1 (EZH2): 12 fold

CCCc1cc(C)[nH]c(=O)c1CNC(=O)c1cc(-c2ccc(N3CCN(C(C)C)CC3)nc2)cc2c1cnn2C(C)C [Compound 5, UNC1999]
IC50 (EZH2; read-out: IC50 EZH2, previously reported): < 0.01 µM

CCCc1cc(C)[nH]c(=O)c1CNC(=O)c1cc(-c2ccc(N3CCN(C(C)C)CC3)nc2)cc2c1cnn2C1CCCCCC1 [Compound 56, 1-Cycloheptyl-6-(6-(4-isopropylpiperazin-1-yl)pyridin-3-yl)-N-((6-methyl-2-oxo-4-propyl-1,2-dihydropyridin-3-yl)methyl)-1H-inda-zole-4-carboxamide]
fold loss of potency for EZH2 ([1]; relative to the parent compound of the sentence (5, 24 or 53)): 10–20 fold | inhibitory activity against EZH1, in words [2]: did not have appreciable inhibitory activity

CC(C)N1CCN(c2ccc(-c3cc(C(=O)NC4CC(C)(C)NC(C)(C)C4)c4cnn(C(C)C)c4c3)cn2)CC1 [Compound 43, 1-Isopropyl-6-(6-(4-isopropylpiperazin-1-yl)pyridin-3-yl)-N-(2,2,6,6-tetramethylpiperidin-4-yl)-1H-indazole-4-carboxamide]
inhibitory activity against EZH2, in words [1]: complete loss of potency | inhibitory activity against EZH1, in words [2]: complete loss of potency
